From article PMC11898290, “TFEB promotes Ginkgetin-induced ferroptosis via TRIM25 mediated GPX4 lysosomal degradation in EGFR wide-type lung adenocarcinoma” (Theranostics, 2025)

Experiments:
TFEB = target: T1, TFEB (Homo sapiens, UniProt P19484); test: SPR, Biacore S200, CM5 chip, steady-state fit; format: binding; details: 10 mM HEPES pH 7.4, 150 mM NaCl, 0.05% P20, 2% DMSO, 25 °C; GK 0.137-100 µM
T1 construct: TFEB protein amine-coupled on CM5 chip (about 6500 RU)
T1 sequence (P19484 1-476): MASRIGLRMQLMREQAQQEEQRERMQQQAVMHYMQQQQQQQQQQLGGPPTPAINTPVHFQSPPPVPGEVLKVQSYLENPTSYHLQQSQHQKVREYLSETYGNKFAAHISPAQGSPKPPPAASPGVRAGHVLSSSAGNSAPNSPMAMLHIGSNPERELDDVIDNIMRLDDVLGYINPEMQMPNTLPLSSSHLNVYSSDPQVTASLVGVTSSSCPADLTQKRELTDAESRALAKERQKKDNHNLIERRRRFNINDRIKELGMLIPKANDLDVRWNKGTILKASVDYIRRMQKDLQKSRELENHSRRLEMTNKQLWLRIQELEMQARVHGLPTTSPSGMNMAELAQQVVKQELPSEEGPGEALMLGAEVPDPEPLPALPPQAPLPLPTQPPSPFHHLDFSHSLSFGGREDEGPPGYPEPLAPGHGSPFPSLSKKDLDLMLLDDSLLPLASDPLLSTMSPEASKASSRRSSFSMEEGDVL

[1] = target: T2, TFEB-GFP (pcDNA3.1-TFEB-GFP) (Homo sapiens, UniProt P19484); test: microscale thermophoresis, GFP-fusion in cell lysate; format: binding
T2 sequence (P19484 1-476): T1 sequence (P19484 1-476)

Q: Which results are given for `COc1cc(O)c2c(=O)cc(-c3ccc(OC)c(-c4c(O)cc(O)c5c(=O)cc(-c6ccc(O)cc6)oc45)c3)oc2c1` [ginkgetin]?
A: Kd (TFEB): The binding affinity of GK to TFEB was determined by the SPR assay.; Kd [1]: 28 µM
